{"source": "patent US6500853B1", "about": "“Inhibitors of phospholipase enzymes” (Genetics Institute, LLC, priority 1998, dated 2002)", "target": "T1, cPLA2 (Homo sapiens, UniProt P47712)", "T1 sequence (P47712 1-749)": "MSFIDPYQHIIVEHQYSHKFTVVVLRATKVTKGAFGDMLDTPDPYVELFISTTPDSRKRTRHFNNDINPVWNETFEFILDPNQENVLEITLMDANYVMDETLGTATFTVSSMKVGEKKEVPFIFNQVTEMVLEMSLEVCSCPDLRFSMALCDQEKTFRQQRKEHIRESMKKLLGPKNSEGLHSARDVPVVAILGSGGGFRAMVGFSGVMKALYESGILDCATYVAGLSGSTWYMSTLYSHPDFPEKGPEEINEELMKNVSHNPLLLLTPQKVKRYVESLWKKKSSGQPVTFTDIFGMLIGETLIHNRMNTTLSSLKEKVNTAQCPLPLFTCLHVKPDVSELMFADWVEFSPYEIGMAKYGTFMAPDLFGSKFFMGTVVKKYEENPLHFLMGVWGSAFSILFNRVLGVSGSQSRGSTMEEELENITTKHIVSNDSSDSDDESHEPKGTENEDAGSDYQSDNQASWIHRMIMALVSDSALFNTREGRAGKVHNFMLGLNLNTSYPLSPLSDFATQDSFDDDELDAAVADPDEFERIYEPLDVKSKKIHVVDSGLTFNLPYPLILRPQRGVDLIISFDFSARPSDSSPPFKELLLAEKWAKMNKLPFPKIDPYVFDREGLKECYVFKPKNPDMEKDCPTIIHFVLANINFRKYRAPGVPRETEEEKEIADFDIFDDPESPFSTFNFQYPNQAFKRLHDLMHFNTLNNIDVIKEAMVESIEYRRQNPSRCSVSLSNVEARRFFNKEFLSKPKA", "assay": "Coumarin Assay (cPLA2 inhibition)", "type": "biochemical", "conditions": "for inhibition at 2.5 µM: CONCENTRATION 2.5 micromolar; for inhibition at 1.6 µM: CONCENTRATION 1.6 micromolar; for inhibition at 1.1 µM: CONCENTRATION 1.1 micromolar", "protocol": "Table I reports data for the compounds described in the examples above in cPLA2 inhibition assays (described below). In the data columns of Tables I and II, assay results are reported as a percent inhibition at the concentration specified.\n7-hydroxycoumarinyl 6-heptenoate was used as a monomeric substrate for cPLA2 as reported previously (Huang, Z. et al., 1994, Nalytical Biochemistry 222, 110-115). Inhibitors were mixed with 200 μL assay buffer (80 mM Heped, pH 7.5, 1 mM EDTA) containing 60 μM 7-hydroxycoumarinyl 6-heptenoate. The reaction was initiated by adding 4 μg cPLA2 in 50 μL assay buffer. Hydrolysis of the 7-hydroxycounarimyl 6-heptenoate ester was monitored in a fluorometer by exciting at 360 nm and monitoring emission at 460 nm. Enzyme activity is proportional to the increase in emission at 460 nm per minute. In the presence of a cPLA2 inhibitor, the rate of increase is less. The percent inhibition for corresponding concentrations of compounds herein in this Coumarin assay are provided below in Table I.", "key": {"[1]": {"conditions": "CONCENTRATION 50 micromolar, read-out: PERCENT INHIBITION @"}}, "data": [{"molecule": "O=C(Cc1cn(Cc2ccc(C(F)(F)F)cc2C(F)(F)F)c2ccc(OCc3ccccc3)cc12)Nc1cccc(C(=O)O)c1", "note": "[Example 106, 3-[(2-{5-(benzyloxy)-1-[2,4-bis(trifluoromethyl)benzyl]-1H-indol-3-yl}acetyl)amino]benzoic acid]", "values": [{"measurement": "inhibition at 7 µM", "setting": "CONCENTRATION 7 micromolar, read-out: PERCENT INHIBITION @", "result": 50, "unit": "%"}, {"measurement": "inhibition at 12 µM", "setting": "CONCENTRATION 12 micromolar, read-out: PERCENT INHIBITION @", "result": 50, "unit": "%"}]}, {"molecule": "Cc1c(C(=O)O)c2cc(OCc3ccccc3)ccc2n1Cc1ccc(C(F)(F)F)cc1C(F)(F)F", "note": "[Example 107, 5-(benzyloxy)-1-[2,4-bis(trifluoromethyl)benzyl]-2-methyl-1H-indole-3-carboxylic acid]", "values": [{"measurement": "inhibition at 37 µM", "setting": "CONCENTRATION 37 micromolar, read-out: PERCENT INHIBITION @", "result": 50, "unit": "%"}, {"measurement": "inhibition at 50 µM", "setting": "[1]", "result": 43, "unit": "%"}, {"measurement": "inhibition at 71 µM", "setting": "CONCENTRATION 71 micromolar, read-out: PERCENT INHIBITION @", "result": 50, "unit": "%"}, {"measurement": "inhibition at 80 µM", "setting": "CONCENTRATION 80 micromolar, read-out: PERCENT INHIBITION @", "result": 50, "unit": "%"}]}, {"molecule": "Cc1c(C(=O)Nc2cc(C(=O)O)cc(C(=O)O)c2)c2cc(OCc3ccccc3)ccc2n1Cc1ccc(C(F)(F)F)cc1C(F)(F)F", "note": "[Example 108, 5-[({5-(benzyloxy)-1-[2,4-bis(trifluoromethyl)benzyl]-2-methyl-1H-indol-3-yl}carbonyl)amino]isophthalic acid]", "values": [{"measurement": "inhibition at 6.25 µM", "setting": "CONCENTRATION 6.25 micromolar, read-out: PERCENT INHIBITION @", "result": 67, "unit": "%"}, {"measurement": "inhibition at 20 µM", "setting": "CONCENTRATION 20 micromolar, read-out: PERCENT INHIBITION @", "result": 15, "unit": "%"}, {"measurement": "inhibition at 48 µM", "setting": "CONCENTRATION 48 micromolar, read-out: PERCENT INHIBITION @", "result": 50, "unit": "%"}, {"measurement": "inhibition at 50 µM", "setting": "[1]", "result": 46, "unit": "%"}]}, {"molecule": "Cc1c(C(=O)O)c2cc(OCc3ccccc3)ccc2n1Cc1ccc2ccccc2c1", "note": "[Example 109, 5-(benzyloxy)-2-methyl-1-(2-naphthylmethyl)-1H-indole-3-carboxylic acid]", "values": [{"measurement": "PERCENT INHIBITION @", "setting": "CONCENTRATION 50 micromolar", "result": 25, "unit": "%"}, {"measurement": "inhibition at 50 µM", "setting": "[1]", "result": 28, "unit": "%"}]}, {"molecule": "Cc1c(C(=O)Nc2cc(C(=O)O)cc(C(=O)O)c2)c2cc(OCc3ccccc3)ccc2n1Cc1ccc2ccccc2c1", "note": "[Example 110, 5-({[5-(benzyloxy)-2-methyl-1-(2-naphthylmethyl)-1H-indol-3-yl]carbonyl}amino)isophthalic acid]", "values": [{"measurement": "inhibition at 46 µM", "setting": "CONCENTRATION 46 micromolar, read-out: PERCENT INHIBITION @", "result": 50, "unit": "%"}, {"measurement": "inhibition at 47 µM", "setting": "CONCENTRATION 47 micromolar, read-out: PERCENT INHIBITION @", "result": 50, "unit": "%"}]}, {"molecule": "Cc1c(C(=O)O)c2cc(OCc3ccccc3)ccc2n1Cc1ccccc1", "note": "[Example 111, 1-benzyl-5-(benzyloxy)-2-methyl-1H-indole-3-carboxylic acid]", "values": [{"measurement": "PERCENT INHIBITION @", "setting": "CONCENTRATION 50 micromolar", "result": 15, "unit": "%"}, {"measurement": "inhibition at 50 µM", "setting": "[1]", "result": 16, "unit": "%"}]}, {"molecule": "O=C(Nc1cccc(C(=O)O)c1)C(=O)c1c(CSc2ccc3ccccc3c2)n(Cc2ccc(Cl)cc2)c2ccc(OCc3ccccc3)cc12", "note": "[Example 112, 3-[(2-{5-(benzyloxy)-1-(4-chlorobenzyl)-2-[(2-naphthylsulfanyl)methyl]-1H-indol-3-yl}-2-oxoacetyl)amino]benzoic acid]", "values": [{"measurement": "inhibition at 2.5 µM", "setting": "read-out: PERCENT INHIBITION @", "result": 53, "unit": "%"}]}, {"molecule": "Cn1c(CSc2ccc3ccccc3c2)c(C(=O)C(=O)Nc2cccc(C(=O)O)c2)c2cc(OCc3ccccc3)ccc21", "note": "[Example 113, 3-[(2-{5-(benzyloxy)-1-methyl-2-[(2-naphthylsulfanyl)methyl]-1H-indol-3-yl}-2-oxoacetyl)amino]benzoic acid]", "values": [{"measurement": "inhibition at 7.5 µM", "setting": "CONCENTRATION 7.5 micromolar, read-out: PERCENT INHIBITION @", "result": 50, "unit": "%"}, {"measurement": "inhibition at 8 µM", "setting": "CONCENTRATION 8 micromolar, read-out: PERCENT INHIBITION @", "result": 50, "unit": "%"}]}, {"molecule": "Cc1cc(Cc2cn(C(c3ccccc3)c3ccccc3)c3cc(Cl)ccc23)cc(C)c1OCC(=O)O", "note": "[Example 117, 2-{4-[(1-benzhydryl-6-chloro-1H-indol-3-yl)methyl]-2,6-dimethylphenoxy}acetic acid]", "values": [{"measurement": "inhibition at 1.6 µM", "setting": "read-out: PERCENT INHIBITION @", "result": 50, "unit": "%"}]}, {"molecule": "COc1cc(OCC(=O)O)ccc1Cc1cn(C(c2ccccc2)c2ccccc2)c2cc(Cl)ccc12", "note": "[Example 118, 2-{4-[(1-benzhydryl-6-chloro-1H-indol-3-yl)methyl]-3-methoxyphenoxy}acetic acid]", "values": [{"measurement": "inhibition at 0.6 µM", "setting": "CONCENTRATION 0.6 micromolar, read-out: PERCENT INHIBITION @", "result": 50, "unit": "%"}]}, {"molecule": "O=C(O)COc1ccc(Cc2cn(C(c3ccccc3)c3ccccc3)c3cc(Cl)ccc23)cc1", "note": "[Example 119, 2-{4-[(1-benzhydryl-6-chloro-1H-indol-3-yl)methyl]phenoxy}acetic acid]", "values": [{"measurement": "inhibition at 2.5 µM", "setting": "read-out: PERCENT INHIBITION @", "result": 50, "unit": "%"}]}, {"molecule": "O=C(O)COc1ccc(Cc2cn(C(c3ccccc3)c3ccccc3)c3cc(Cl)ccc23)c(Cl)c1", "note": "[Example 120, 2-{4-[(1-benzhydryl-6-chloro-1H-indol-3-yl)methyl]-3-chlorophenoxy}acetic acid]", "values": [{"measurement": "inhibition at 1 µM", "setting": "CONCENTRATION 1 micromolar, read-out: PERCENT INHIBITION @", "result": 50, "unit": "%"}]}, {"molecule": "COc1cc(Cc2cn(C(c3ccccc3)c3ccccc3)c3cc(Cl)ccc23)ccc1OCC(=O)O", "note": "[Example 121, 2-{4-[(1-benzhydryl-6-chloro-1H-indol-3-yl)methyl]-2-methoxyphenoxy}acetic acid]", "values": [{"measurement": "inhibition at 1.6 µM", "setting": "read-out: PERCENT INHIBITION @", "result": 20, "unit": "%"}]}, {"molecule": "O=C(O)/C=C/COc1ccc(Cc2cn(C(c3ccccc3)c3ccccc3)c3cc(Cl)ccc23)cc1", "note": "[Example 122, (E)-4-{4-[(1-benzhydryl-6-chloro-1H-indol-3-yl)methyl]phenoxy}-2-butenoic acid]", "values": [{"measurement": "inhibition at 1.25 µM", "setting": "CONCENTRATION 1.25 micromolar, read-out: PERCENT INHIBITION @", "result": 64, "unit": "%"}]}, {"molecule": "O=C(O)CCC(=O)Nc1ccc(Cc2cn(C(c3ccccc3)c3ccccc3)c3cc(Cl)ccc23)cc1", "note": "[Example 123, 4-{4-[(1-benzhydryl-6-chloro-1H-indol-3-yl)methyl]anilino}-4-oxobutanooic acid]", "values": [{"measurement": "PERCENT INHIBITION @", "setting": "CONCENTRATION 1.2 micromolar", "result": 50, "unit": "%"}]}, {"molecule": "O=C(O)CC(=O)Nc1ccc(Cc2cn(C(c3ccccc3)c3ccccc3)c3cc(Cl)ccc23)cc1", "note": "[Example 124, sodium 3-{4-[(1-benzhydryl-6-chloro-1H-indol-3-yl)methyl]anilino}-3-oxopropanoic acid]", "values": [{"measurement": "inhibition at 1.3 µM", "setting": "CONCENTRATION 1.3 micromolar, read-out: PERCENT INHIBITION @", "result": 50, "unit": "%"}]}, {"molecule": "O=C(O)C(=O)Nc1ccc(Cc2cn(C(c3ccccc3)c3ccccc3)c3cc(Cl)ccc23)cc1", "note": "[Example 125, 2-{4-[(1-benzhydryl-6-chloro-1H-indol-3-yl)methyl]anilino}-2-oxoacetic acid]", "values": [{"measurement": "inhibition at 0.8 µM", "setting": "CONCENTRATION 0.8 micromolar, read-out: PERCENT INHIBITION @", "result": 50, "unit": "%"}]}, {"molecule": "O=C(O)C1CC1Cc1cn(C(c2ccccc2)c2ccccc2)c2cc(Cl)ccc12", "note": "(stereo not shown) [Example 126, 2-[(1-benzhydryl-6-chloro-1H-indol-3-yl)methyl]cyclopropanecarboxylic acid]", "values": [{"measurement": "inhibition at 5.5 µM", "setting": "CONCENTRATION 5.5 micromolar, read-out: PERCENT INHIBITION @", "result": 50, "unit": "%"}]}, {"molecule": "O=C(O)C1CC1Cc1cn(C(c2ccccc2)c2ccccc2)c2cc(Cl)c(F)cc12", "note": "(stereo not shown) [Example 127, 2-[(1-benzhydryl-6-chloro-5-fluoro-1H-indol-3-yl)methyl]cyclopropanecarboxylic acid]", "values": [{"measurement": "inhibition at 1.1 µM", "setting": "read-out: PERCENT INHIBITION @", "result": 50, "unit": "%"}]}, {"molecule": "O=C(O)C1CC1Cc1cn(C(c2ccccc2)c2ccccc2)c2cc(Cl)c(Cl)cc12", "note": "(stereo not shown) [Example 128, 2-[(1-benzhydryl-5,6-dichloro-1H-indol-3-yl)methyl]cyclopropanecarboxylic acid]", "values": [{"measurement": "inhibition at 0.9 µM", "setting": "CONCENTRATION 0.9 micromolar, read-out: PERCENT INHIBITION @", "result": 50, "unit": "%"}]}, {"molecule": "O=C(O)C1CC1Cc1cn(C(c2ccc(O)cc2)c2ccc(O)cc2)c2cc(Cl)ccc12", "note": "(stereo not shown) [Example 129, 2-({1-[bis(4-hydroxyphenyl)methyl]-6-chloro-1H-indol-3-yl}methyl)cyclopropanecarboxylic acid]", "values": [{"measurement": "inhibition at 1.1 µM", "setting": "read-out: PERCENT INHIBITION @", "result": 50, "unit": "%"}]}, {"molecule": "O=C(O)c1ccc(Cc2cn(C(c3ccccc3)c3ccccc3)c3cc(Cl)ccc23)c(O)c1", "note": "[Example 130, ′4-[(1-benzhydryl-6-chloro-1H-indol-3-yl)methyl]-3-hydroxybenzoic acid]", "values": [{"measurement": "PERCENT INHIBITION @", "setting": "CONCENTRATION 2 micromolar", "result": 50, "unit": "%"}]}, {"molecule": "O=C(O)c1ccc(Cc2cn(C(c3ccccc3)c3ccccc3)c3cc(Cl)ccc23)c(OCCCO)c1", "note": "[Example 131, ′4-[(1-benzhydryl-6-chloro-1H-indol-3-yl)methyl]-3-(3-hydroxypropoxy)benzoic acid]", "values": [{"measurement": "PERCENT INHIBITION @", "setting": "CONCENTRATION 0.6 micromolar", "result": 50, "unit": "%"}]}]}
